Laboratory results as given in PubChem BioAssay (NCI).
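Following 48 hours of exposure in 96-well plates, responses at five concentrations were used to interpolate endpoints linearly. GI50 marks 50% less growth. TGI: concentration producing complete growth inhibition.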

Tests used:
Experiment in all cases: DTP human tumour cell line panel, 48 h
[1] = tested on: 786-0 renal
[2] = tested on: A498 renal
[3] = tested on: A549 NSCLC
[4] = tested on: ACHN renal
[5] = tested on: BT-549 breast
[6] = tested on: CAKI-1 renal
[7] = tested on: CCRF-CEM leukemia
[8] = tested on: COLO 205 colon
[9] = tested on: DU-145 prostate
[10] = tested on: EKVX NSCLC
[11] = tested on: HCC-2998 colon
[12] = tested on: HCT-116 colon
[13] = tested on: HCT-15 colon
[14] = tested on: HL-60(TB) leukemia
[15] = tested on: HOP-62 NSCLC
[16] = tested on: HOP-92 NSCLC
[17] = tested on: HS 578T breast
[18] = tested on: HT29 colon
[19] = tested on: IGROV1 ovarian
[20] = tested on: K-562 leukemia
[21] = tested on: KM12 colon
[22] = tested on: LOX IMVI melanoma
[23] = tested on: M14 melanoma
[24] = tested on: MALME-3M melanoma
[25] = tested on: MCF7 breast
[26] = tested on: MDA-MB-231 breast
[27] = tested on: MDA-MB-435
[28] = tested on: MDA-MB-468 breast
[29] = tested on: MOLT-4 leukemia
[30] = tested on: NCI-H226 lung
[31] = tested on: NCI-H23 lung
[32] = tested on: NCI-H460 lung
[33] = tested on: NCI-H522 lung
[34] = tested on: NCI/ADR-RES ovarian
[35] = tested on: OVCAR-3 ovarian
[36] = tested on: OVCAR-4 ovarian
[37] = tested on: OVCAR-5 ovarian
[38] = tested on: OVCAR-8 ovarian
[39] = tested on: PC-3 prostate
[40] = tested on: RPMI-8226 leukemia
[41] = tested on: RXF 393 renal
[42] = tested on: SF-268 CNS
[43] = tested on: SF-295 CNS
[44] = tested on: SF-539 CNS
[45] = tested on: SK-MEL-2 melanoma
[46] = tested on: SK-MEL-28 melanoma
[47] = tested on: SK-MEL-5 melanoma
[48] = tested on: SK-OV-3 ovarian
[49] = tested on: SN12C renal
[50] = tested on: SNB-19 CNS
[51] = tested on: SNB-75 CNS
[52] = tested on: SR leukemia
[53] = tested on: SW-620 colon
[54] = tested on: T-47D breast
[55] = tested on: TK-10 renal
[56] = tested on: U251 CNS
[57] = tested on: UACC-257 melanoma
[58] = tested on: UACC-62 melanoma
[59] = tested on: UO-31 renal

N#Cc1c(NC(=O)c2ccc(C(F)(F)F)cc2C(F)(F)F)sc2c1CCC(=O)C2
GI50 [1]: 0.442 µM
TGI [1]: 4.08 µM
GI50 [2]: 13 µM
TGI [2]: 28.1 µM
GI50 [3]: 3.29 µM
TGI [3]: 30 µM
GI50 [4]: 0.331 µM
TGI [4]: 1.18 µM
GI50 [5]: 0.309 µM
TGI [5]: 1.11 µM
GI50 [6]: 0.61 µM
TGI [6]: 2.12 µM
GI50 [7]: 0.308 µM
TGI [7]: 3.2 µM
GI50 [8]: 1.31 µM
TGI [8]: 2.72 µM
GI50 [9]: 3.72 µM
TGI [9]: 14.9 µM
GI50 [10]: 1.65 µM
TGI [10]: 7.84 µM
GI50 [11]: 1.66 µM
TGI [11]: 5.6 µM
GI50 [12]: 0.345 µM
TGI [12]: 6.64 µM
GI50 [13]: 0.335 µM
TGI [13]: 1.39 µM
GI50 [14]: 0.235 µM
TGI [14]: 3.27 µM
GI50 [15]: 3.45 µM
TGI [15]: 14 µM
GI50 [16]: 0.234 µM
TGI [16]: 0.77 µM
GI50 [17]: 0.999 µM
TGI [17]: 8.55 µM
GI50 [18]: 0.542 µM
TGI [18]: 2.95 µM
GI50 [19]: 0.894 µM
TGI [19]: 5.52 µM
GI50 [20]: 0.275 µM
TGI [20]: > 40.2 µM
GI50 [21]: 0.468 µM
TGI [21]: 2.33 µM
GI50 [22]: 0.369 µM
TGI [22]: 2.17 µM
GI50 [23]: 0.901 µM
TGI [23]: 2.84 µM
GI50 [24]: 0.369 µM
TGI [24]: 1.45 µM
GI50 [25]: 0.442 µM
TGI [25]: 10.8 µM
GI50 [26]: 0.769 µM
TGI [26]: 2.39 µM
GI50 [27]: 0.888 µM
TGI [27]: 2.98 µM
GI50 [28]: 0.565 µM
TGI [28]: 1.82 µM
GI50 [29]: 0.386 µM
TGI [29]: 7.21 µM
GI50 [30]: 2.24 µM
TGI [30]: 6.81 µM
GI50 [31]: 0.431 µM
TGI [31]: 2.28 µM
GI50 [32]: 3.13 µM
TGI [32]: 10.9 µM
GI50 [33]: 0.169 µM
TGI [33]: 0.686 µM
GI50 [34]: 0.623 µM
TGI [34]: 7.14 µM
GI50 [35]: 0.36 µM
TGI [35]: 1.37 µM
GI50 [36]: 0.507 µM
TGI [36]: 1.88 µM
GI50 [37]: 1.04 µM
TGI [37]: 2.67 µM
GI50 [38]: 0.569 µM
TGI [38]: 16.5 µM
GI50 [39]: 0.249 µM
TGI [39]: 2.36 µM
GI50 [40]: 0.209 µM
TGI [40]: 4.11 µM
GI50 [41]: 0.293 µM
TGI [41]: 1.27 µM
GI50 [42]: 2.82 µM
TGI [42]: 13.2 µM
GI50 [43]: 1.99 µM
TGI [43]: 6.4 µM
GI50 [44]: 0.316 µM
TGI [44]: 1.15 µM
GI50 [45]: 2.23 µM
TGI [45]: 4.55 µM
GI50 [46]: 0.613 µM
TGI [46]: 1.9 µM
GI50 [47]: 0.804 µM
TGI [47]: 2.08 µM
GI50 [48]: 2.66 µM
TGI [48]: 7.23 µM
GI50 [49]: 0.675 µM
TGI [49]: 11.1 µM
GI50 [50]: 3.69 µM
TGI [50]: 14.1 µM
GI50 [51]: 1.46 µM
TGI [51]: 4.9 µM
GI50 [52]: 0.303 µM
TGI [52]: > 100 µM
GI50 [53]: 0.363 µM
TGI [53]: 1.61 µM
GI50 [54]: 0.358 µM
TGI [54]: 2.96 µM
GI50 [55]: 0.367 µM
TGI [55]: 2.19 µM
GI50 [56]: 0.8 µM
TGI [56]: 13.2 µM
GI50 [57]: 1.5 µM
TGI [57]: 3.63 µM
GI50 [58]: 0.501 µM
TGI [58]: 1.87 µM
GI50 [59]: 0.339 µM
TGI [59]: 1.31 µM
